Test results: US11020414B2, “Antimicrobial compositions with cysteamine” (priority 2010, dated 2021)
Several values for one entry are separate records, joined by “and”; a condition that tells them apart may be missing. Equal entries are not always repeated. Where two headings read alike, the source gives them in different places.

Columns and labels:
Assay type in all cases: cell-based
[1] = tested on: Pseudomonas planktonic cells; assay: Antibacterial activity of Tobramycin and cysteamine, separately and combined (FIG. 1); settings: FIG. 1b
Protocol: FIG. 1A and FIG. 1B: provide a comparison of the antibacterial activity of Tobramycin and cysteamine (NM001) against Pseudomonas planktonic cells when administered separately, and in combined form. NM001 reduces the MIC of Tobramycin against planktonic cells by at least 4-fold (FIG. 1b)
(§1) Both the bacterial inoculum and the antimicrobial agents, including the compounds structurally related to cysteamine, were added simultaneously to the plates. The plates were incubated at 37° C. for 24 h and the optical density was read at 625 nm on a microtitre plate reader (BioTek Powerwave XS, Winooski, USA). The MIC was obtained as the lowest concentration of antimicrobial showing total inhibition of bacterial growth.

[2] = tested on: Pseudomonas aeruginosa cells; assay: Tobramycin alone and with cysteamine in non-mucous and mucous environment (FIG. 3); settings: mucous environment (NaCl and/or mucin)
From the text: FIG. 3: provides a comparison of the activity of Tobramycin alone and when in combination with cysteamine (NM001) against Pseudomonas aeruginosa cells cultured in a non-mucous environment and when cultured in a mucous environment replicating that found within the CF lung (in the presence of NaCl and/or mucin).

[3] = tested on: Pseudomonas aeruginosa Pa01; assay: FIC index of combinations with conventional antibiotics, strain Pa01; settings: strain Pa01 (Col^R), listed as Cysteamine (NM001)
Protocol: (§2) The bacterial inoculum was established by the dilution method from actively-growing cultures in Mueller-Hinton (MH) broth, standardized with 0.5 McFarland turbidity standard as described in the CLSI method M26-A.
as §1
(§3) The FIC corresponds to an interaction coefficient indicating whether the combination of antimicrobial agents is synergistic, additive, antagonist or neutral. The FIC is determined by comparing the activity of an agent in combination (MIC of agent A+agent B) with the activity of the agent alone (MIC of agent A or agent B) as follow (Singh et al., 2000): FIC=MICA[combination]/MICA[alone]+MICB[combination]/MICB[alone]
(§4) Additive combinations of two antimicrobial agents are indicated by a FIC index of 1, whereas a FIC index<1 indicates synergistic combinations. Neutral combinations would give a FIC between 1 and 4, a FIC index higher than 4 indicates antagonist effects between the two antimicrobial agents.
(§5) The FIC was also calculated to assess the interaction of two antimicrobial agents in combination against bacterial samples.

[4] = tested on: Burkholderia cepacia NCTC10743; assay: MIC100 and FIC of cysteamine and tobramycin, MH broth (CLSI) and artificial sputum medium
Protocol: as §1, §3
(§6) The complex pathophysiology of CF is characterized by airway obstruction caused by abnormal mucus secretion and infection, with 60-80% of patients being chronically infected with the biofilm-forming bacteria Pseudomonas aeruginosa (George et al., 2009). With a prevalence of up to 10% in adult CF patients, B. cepacia complex is a rare but major concern due to its high virulence, morbidity and transmissibility (O'Malley, 2009; Brüssow, 2012). We tested the antimicrobial activity of cysteamine-tobramycin combinations in artificial sputum medium (Yang, et al., 2011) against 4 P. aeruginosa (PAO1, ATCC27853, DSMZ1128 and DSMZ1299) and 2 B. cepacia complex strains (NCTC10743 and NCTC10744).

[5] = tested on: Burkholderia cepacia NCTC10744; assay: as above; settings: read-out: MIC100, agent alone
Protocol: as §1, §3, §6

[6] = tested on: Pseudomonas aeruginosa Pa57388A; assay: FIC index of combinations with conventional antibiotics, strain Pa57388A; settings: strain Pa57388A (Col^R), listed as Cysteamine (NM001)
Protocol: as §2, §1, §3, §4, §5

Question: NCCS [Cysteamine, cysteamine] was tested. Which “reduction of the MIC of Tobramycin by NM001” value [1] did it give?
Answer: The value was “at least 4 fold”.

Question: And the “effect on activity of conventional antibiotics” value [2]?
Answer: The value was “restores antibiotic activity”.

Question: What about the “FICI (Additive) Col” value ([3]; in combination with Colistin) of the same compound?
Answer: Its value is 0.53 and 0.56.

Question: What about the “FICI (Synergy) Col” value ([3]; in combination with Colistin) of the same compound?
Answer: Its value is 0.38 and 0.31 and 0.25.

Question: And the “FICI (Additive) Gent” value ([3]; in combination with Gentamicin)?
Answer: Its value is 0.5 and 0.53 and 0.63.

Question: What about the “FICI (Synergy) Gent” value ([3]; in combination with Gentamicin) of the same compound?
Answer: The value was 0.38.

Question: And the “FICI (Additive) Tob” value ([3]; in combination with Tobramycin)?
Answer: The value was 0.63.

Question: What about the “FICI (Synergy) Tob” value ([3]; in combination with Tobramycin) of the same compound?
Answer: The value was 0.31 and 0.28 and 0.25.

Question: What about the MIC ([4]; NCTC10743, B. cepacia NCTC10743, FIG. 6, read-out: MIC100, agent alone) of the same compound?
Answer: The MIC was 500 µg/mL.

Question: And the MIC ([4]; NCTC10743, B. cepacia NCTC10743, in both media (MH broth and ASM), FIG. 11, read-out: MIC100, agent alone)?
Answer: The MIC was 500 µg/mL.

Question: What about the MIC ([4]; NCTC10743, B. cepacia NH10743, ASM (Artificial Sputum Medium), read-out: MIC100, agent alone) of the same compound?
Answer: Its MIC is 500 µg/mL.

Question: And the MIC ([4]; NCTC10743, B. cepacia NH10743, CLSI, read-out: MIC100, agent alone)?
Answer: Its MIC is 250 µg/mL.

Question: And the MIC ([5]; NCTC10744, B. cepacia NH10744, ASM (Artificial Sputum Medium))?
Answer: The MIC was 500 µg/mL.

Question: And the MIC ([5]; NCTC10744, B. cepacia NH10744, CLSI)?
Answer: The MIC was 250 µg/mL.

Question: And the “FICI (Additive) Cip” value ([6]; in combination with Ciprofloxacin)?
Answer: The value was 0.63.

Question: What about the “FICI (Additive) Col” value ([6]; in combination with Colistin) of the same compound?
Answer: Its value is 0.52 and 0.51 and 0.63 and 0.56.

Question: What about the “FICI (Synergy) Col” value ([6]; in combination with Colistin) of the same compound?
Answer: The value was 0.38 and 0.31.

Question: What about the “FICI (Additive) Gent” value ([6]; in combination with Gentamicin) of the same compound?
Answer: The value was 0.5 and 0.56 and 0.75.

Question: What about the “FICI (Synergy) Gent” value ([6]; in combination with Gentamicin) of the same compound?
Answer: The value was 0.38.

Question: And the “FICI (Additive) Tob” value ([6]; in combination with Tobramycin)?
Answer: Its value is 0.63 and 0.75 and 0.5 and 0.56.

Question: What about the “FICI (Synergy) Tob” value ([6]; in combination with Tobramycin) of the same compound?
Answer: Its value is 0.31 and 0.38.
